pIC50: −log10 of the molar value.
How the values were obtained:
[1] = system: Phosphorylation of ERK1/2 in AsPC-1 cells; assay: Phospho-ERK1/2 MSD assay; format: cell-based; settings: Homo sapiens, ASPC1, read-out: 2 h p-ERK (AsPC-1 cells), IC50 (μM), 2 hours compound treatment
Method: Sixteen hours prior to compound treatment, AsPC-1 cells were seeded in 96-well cell culture plates at a density of 25,000 cells/well and incubated at 37° C., 5% CO2. A compound dose-response titration was diluted in growth media, added to appropriate wells of a cell culture plate, and then incubated at 37° C., 5% CO2 for 2 hours.

[2] = target: His-tagged KRAS G12D protein (Homo sapiens, UniProt P01116, G12D); assay: KRAS G12D TR-FRET assay (binding); settings: biotinylated KRPep-2d substrate, GDP in assay buffer
Chain of His-tagged KRAS G12D protein (P01116 1-188 isoform P01116-2 G12D): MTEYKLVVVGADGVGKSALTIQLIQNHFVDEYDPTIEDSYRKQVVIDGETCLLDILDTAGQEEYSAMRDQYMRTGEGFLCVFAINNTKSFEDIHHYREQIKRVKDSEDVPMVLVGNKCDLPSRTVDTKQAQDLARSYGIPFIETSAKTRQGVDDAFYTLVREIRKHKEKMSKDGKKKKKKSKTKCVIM

SMILES | IC50 [1] [µM] | pIC50 [2]
CCc1c(F)ccc2cc(O)cc(-c3ncc4c(N5CCSCC5)nc(OC[C@@]56CCCN5C[C@H](F)C6)nc4c3F)c12 [Example 4, 5-Ethyl-6-fluoro-4-(8-fluoro-2-(((2R,7aS)-2-fluorotetrahydro-1H-pyrrolizin-7a(5H)-yl)methoxy)-4-thiomorpholino-pyrido[4,3-d]pyrimidin-7-yl)naphthalen-2-ol] | 0.486 | 8.40
CCc1c(F)ccc2cc(O)cc(-c3ncc4c(N5[C@@H]6CC[C@H]5COC6)nc(OC[C@@]56CCCN5C[C@H](F)C6)nc4c3F)c12 [Example 6, 4-(4-((1R,5S)-3-Oxa-8-azabicyclo[3.2.1]octan-8-yl)-8-fluoro-2-(((2R,7aS)-2-fluorotetrahydro-1H-pyrrolizin-7a(5H)-yl)methoxy)pyrido [4,3-d]pyrimidin-7-yl)-5-ethyl-6-fluoronaphthalen-2-ol] | 1.77 | 7.16
CCc1c(F)ccc2cc(O)cc(-c3ncc4c(N5CCCOCC5)nc(OC[C@@H]5C[C@@H](F)CN5C)nc4c3F)c12 [Example 9, 5-Ethyl-6-fluoro-4-(8-fluoro-2-(((2S,4R)-4-fluoro-1-methylpyrrolidin-2-yl)methoxy)-4-(1,4-oxazepan-4-yl)pyrido[4,3-d]pyrimidin-7-yl)naphthalen-2-ol] | 0.353 | 8.10
CCc1cccc2cc(O)cc(-c3ncc4c(N5CC6COC(C6)C5)nc(OC[C@@]56CCCN5C[C@H](F)C6)nc4c3F)c12 (stereo partly drawn) [Example 10, 4-(4-(6-Oxa-3-azabicyclo[3.2.1]octan-3-yl)-8-fluoro-2-(((2R,7aS)-2-fluorotetrahydro-1H-pyrrolizin-7a(5H)-yl)methoxy)pyrido [4,3-d]pyrimidin-7-yl)-5-ethylnaphthalen-2-ol] | 0.277 | 8.10
Oc1cc(-c2ncc3c(N4CCCOCC4)nc(OCC45CCCN4CCC5)nc3c2F)c2ccccc2c1 [Example 13, 4-(8-Fluoro-4-(1,4-oxazepan-4-yl)-2-((tetrahydro-1H-pyrrolizin-7a(5H)-yl)methoxy)pyrido [4,3-d]pyrimidin-7-yl)naphthalen-2-ol] | 4.18 | 7.96
Cc1c(Cl)cc2[nH]ncc2c1-c1ncc2c(N3CCCOCC3)nc(OC[C@@]34CCCN3C[C@H](F)C4)nc2c1F [Example 15, 4-(7-(6-Chloro-5-methyl-1H-indazol-4-yl)-8-fluoro-2-(((2R,7aS)-2-fluorotetrahydro-1H-pyrrolizin-7a(5H)-yl)methoxy)pyrido [4,3-d]pyrimidin-4-yl)-1,4-oxazepane] | 4.51 | 7.44
CN1C[C@H](F)C[C@H]1COc1nc(N2CCCOCC2)c2cnc(-c3cc(O)cc4ccccc34)c(F)c2n1 [Example 16, 4-(8-Fluoro-2-(((2S,4R)-4-fluoro-1-methylpyrrolidin-2-yl)methoxy)-4-(1,4-oxazepan-4-yl)pyrido[4,3-d]pyrimidin-7-yl)naphthalen-2-ol] | 4.83 | 7.14
CCc1c(F)ccc2cc(O)cc(-c3ncc4c(N5CCCOCC5)nc(OCC5(CN6CCOCC6)CC5)nc4c3F)c12 [Example 17, 5-Ethyl-6-fluoro-4-(8-fluoro-2-((1-(morpholinomethyl)cyclopropyl)methoxy)-4-(1,4-oxazepan-4-yl)pyrido[4,3-d]pyrimidin-7-yl)naphthalen-2-ol] | 0.189 | 8.52
Oc1cc(-c2ncc3c(N4C[C@H]5COC[C@@H](C4)O5)nc(OC[C@@]45CCCN4C[C@H](F)C5)nc3c2F)c2c(F)c(F)ccc2c1 [Example 19, 4-(4-((1R,5S)-3,9-Dioxa-7-azabicyclo[3.3.1]nonan-7-yl)-8-fluoro-2-(((2R,7aS)-2-fluorotetrahydro-1H-pyrrolizin-7a(5H)-yl)methoxy)pyrido [4,3-d]pyrimidin-7-yl)-5,6-difluoronaphthalen-2-ol] | 1.1 | 8.05
CCc1cccc2cc(O)cc(-c3ncc4c(N5CCCOCC5)nc(OCC5(CN6CCOCC6)CC5)nc4c3F)c12 [Example 20, 5-Ethyl-4-(8-fluoro-2-((1-(morpholinomethyl)cyclopropyl)methoxy)-4-(1,4-oxazepan-4-yl)pyrido[4,3-d]pyrimidin-7-yl)naphthalen-2-ol] | 0.336 | 8.30
CCc1c(F)ccc2cc(O)cc(-c3ncc4c(N5C[C@H]6COC[C@@H](C5)O6)nc(OC[C@@]56CCCN5C[C@H](F)C6)nc4c3F)c12 [Example 21, 4-(4-((1R,5S)-3,9-Dioxa-7-azabicyclo[3.3.1]nonan-7-yl)-8-fluoro-2-(((2R,7aS)-2-fluorotetrahydro-1H-pyrrolizin-7a(5H)-yl)methoxy)pyrido [4,3-d]pyrimidin-7-yl)-5-ethyl-6-fluoronaphthalen-2-ol] | 0.621 | 7.96
Oc1cc(Cl)c(C2CC2)c(-c2ncc3c(N4CCCOCC4)nc(OCC4(CN5CCOCC5)CC4)nc3c2F)c1 [Example 22, 3-Chloro-4-cyclopropyl-5-(8-fluoro-2-((1-(morpholinomethyl)cyclopropyl)methoxy)-4-(1,4-oxazepan-4-yl)pyrido[4,3-d]pyrimidin-7-yl)phenol] | 1.29 | 7.96
CCc1cccc2cc(O)cc(-c3ncc4c(N5C[C@H]6COC[C@@H](C5)O6)nc(OC[C@@]56CCCN5C[C@H](F)C6)nc4c3F)c12 [Example 23, 4-(4-((1R,5S)-3,9-Dioxa-7-azabicyclo[3.3.1]nonan-7-yl)-8-fluoro-2-(((2R,7aS)-2-fluorotetrahydro-1H-pyrrolizin-7a(5H)-yl)methoxy)pyrido [4,3-d]pyrimidin-7-yl)-5-ethylnaphthalen-2-ol] | 1.15 | 7.54
CCc1c(F)ccc2cc(O)cc(-c3ncc4c(N5CCOCC5)nc(OC[C@@]56CCCN5C[C@H](F)C6)nc4c3F)c12 [Example 24, 5-Ethyl-6-fluoro-4-(8-fluoro-2-(((2R,7aS)-2-fluorotetrahydro-1H-pyrrolizin-7a(5H)-yl)methoxy)-4-morpholinopyrido [4,3-d]pyrimidin-7-yl)naphthalen-2-ol] | 0.586 | 7.96
CCc1c(F)ccc2cc(O)cc(-c3ncc4c(N5C[C@H]6C[C@@H](C5)O6)nc(OC[C@@]56CCCN5C[C@H](F)C6)nc4c3F)c12 [Example 27, 4-(4-((1R,5S)-6-Oxa-3-azabicyclo[3.1.1]heptan-3-yl)-8-fluoro-2-(((2R,7aS)-2-fluorotetrahydro-1H-pyrrolizin-7a(5H)-yl)methoxy)pyrido [4,3-d]pyrimidin-7-yl)-5-ethyl-6-fluoronaphthalen-2-ol] | 2.28 | 7.21

Now those with a lower IC50 [1], led by results:

IC50 [1] [µM] | pIC50 [2] | SMILES
0.024 | 8.40 | CCc1c(F)ccc2cc(O)cc(-c3ncc4c(N5CCOC[C@@](C)(O)C5)nc(OC[C@@]56CCCN5C[C@H](F)C6)nc4c3Cl)c12 (single isomer, unassigned) [Example 80]
0.033 | 9.00 | CCc1cccc2cc(O)cc(-c3ncc4c(N5CCCOCC5)nc(OC[C@@]56CCCN5C[C@H](F)C6)nc4c3F)c12 [Example 2, 5-Ethyl-4-(8-fluoro-2-(((2R,7aS)-2-fluorotetrahydro-1H-pyrrolizin-7a(5H)-yl)methoxy)-4-(1,4-oxazepan-4-yl)pyrido[4,3-d]pyrimidin-7-yl)naphthalen-2-ol]
0.047 | 8.70 | Oc1cc(-c2ncc3c(N4CCCOCC4)nc(OC[C@@]45CCCN4C[C@H](F)C5)nc3c2F)c2c(F)c(F)ccc2c1 [Example 3, 5,6-Difluoro-4-(8-fluoro-2-(((2R,7aS)-2-fluorotetrahydro-1H-pyrrolizin-7a(5H)-yl)methoxy)-4-(1,4-oxazepan-4-yl)pyrido[4,3-d]pyrimidin-7-yl)naphthalen-2-ol]
0.088 | 8.70 | CCc1c(F)ccc2cc(O)cc(-c3ncc4c(N5CCCSCC5)nc(OC[C@@]56CCCN5C[C@H](F)C6)nc4c3F)c12 [Example 5, 5-Ethyl-6-fluoro-4-(8-fluoro-2-(((2R,7aS)-2-fluorotetrahydro-1H-pyrrolizin-7a(5H)-yl)methoxy)-4-(1,4-thiazepan-4-yl)pyrido[4,3-d]pyrimidin-7-yl)naphthalen-2-ol]
0.046 | 8.70 | CCc1cccc2cc(O)cc(-c3ncc4c(N5CCOCC(F)(F)C5)nc(OC[C@@]56CCCN5C[C@H](F)C6)nc4c3F)c12 [Example 7, 4-(4-(6,6-Difluoro-1,4-oxazepan-4-yl)-8-fluoro-2-(((2R,7aS)-2-fluorotetrahydro-1H-pyrrolizin-7a(5H)-yl)methoxy)pyrido [4,3-d]pyrimidin-7-yl)-5-ethylnaphthalen-2-ol]
0.103 | 8.30 | CN1C[C@H](F)C[C@H]1COc1nc(N2CCCOCC2)c2cnc(-c3cc(O)cc4ccc(F)c(F)c34)c(F)c2n1 [Example 8, 5,6-Difluoro-4-(8-fluoro-2-(((2S,4R)-4-fluoro-1-methylpyrrolidin-2-yl)methoxy)-4-(1,4-oxazepan-4-yl)pyrido[4,3-d]pyrimidin-7-yl)naphthalen-2-ol]
0.131 | 8.40 | C#Cc1cccc2cc(O)cc(-c3ncc4c(N5CCCOCC5)nc(OC[C@@H]5C[C@@H](F)CN5C)nc4c3F)c12 [Example 12, 5-Ethynyl-4-(8-fluoro-2-(((2S,4R)-4-fluoro-1-methylpyrrolidin-2-yl)methoxy)-4-(1,4-oxazepan-4-yl)pyrido[4,3-d]pyrimidin-7-yl)naphthalen-2-ol]
0.162 | 8.70 | Oc1cc(Cl)c(C2CC2)c(-c2ncc3c(N4CCCOCC4)nc(OC[C@@]45CCCN4C[C@H](F)C5)nc3c2F)c1 [Example 18, 3-Chloro-4-cyclopropyl-5-(8-fluoro-2-(((2R,7aS)-2-fluorotetrahydro-1H-pyrrolizin-7a(5H)-yl)methoxy)-4-(1,4-oxazepan-4-yl)pyrido[4,3-d]pyrimidin-7-yl)phenol]

From patent US20250122222A1, “HETEROCYCLIC COMPOUNDS AND METHODS OF USE” (AMGEN INC., priority 2021, published 2025)
